Results: patent US11865086B2, “Cinnamaldehyde derivative compounds and methods of use for cinnamaldehyde derivative compounds nicotine cessation” (Pacific University, priority 2018, dated 2024)
Entries after “also recorded” stand apart in the source; their conditions may differ. One block for each compound: values may come before it.

How the values were obtained:
CYP2A6 [1] = biological target: T1, CYP2A6 (Homo sapiens, UniProt P11509, K28S/Q25K/Q26K/R27T/W24A); test: Spectral ligand binding (KS) to purified CYP2A6 expressed in Escherichia coli; settings: read-out: Ks
T1 sequence (P11509 with tags, fused parts or gaps limits assumed): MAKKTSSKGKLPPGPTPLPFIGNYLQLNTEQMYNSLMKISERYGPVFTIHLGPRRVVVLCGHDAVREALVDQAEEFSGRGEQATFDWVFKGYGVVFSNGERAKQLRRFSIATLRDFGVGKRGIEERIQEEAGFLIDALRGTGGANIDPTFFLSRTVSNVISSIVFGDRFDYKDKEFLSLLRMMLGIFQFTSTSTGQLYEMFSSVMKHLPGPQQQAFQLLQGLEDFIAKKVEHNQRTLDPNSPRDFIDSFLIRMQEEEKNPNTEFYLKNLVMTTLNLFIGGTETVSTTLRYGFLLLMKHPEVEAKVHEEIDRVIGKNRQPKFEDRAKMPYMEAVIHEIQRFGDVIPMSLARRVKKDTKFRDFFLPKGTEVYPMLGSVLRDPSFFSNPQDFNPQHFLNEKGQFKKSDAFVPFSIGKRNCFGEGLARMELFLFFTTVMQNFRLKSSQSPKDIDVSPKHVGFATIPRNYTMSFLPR
Description: (§1) Spectral binding studies were conducted using purified heterologously expressed CYP2A6 in Escherichia coli. […] Absorbance changes (A386-A418) may be plotted against added ligand concentrations in order to determine dissociation constants.
(§2) In more detail, the CYP2A6 enzyme may be heterologously expressed in Escherichia coli and purified. The expression vector, pKK2A6dH may be used to express the enzyme. The vector contains a cDNA sequence that codes for human CYP2A6 with a deletion of the N-terminal transmembrane sequence, an alteration of several residues at the modified N-terminus to increase expression, and four histidine residues added at the C-terminus to aid in purification. […] Expression from the vector may be induced with the addition of IPTG to bacterial cultures. δ-Aminolevulinic acid is added during expression to supplement heme biosynthesis. The enzyme may be purified following previously reported protocols. Briefly, following cell disruption, the solubilized enzyme may be purified using Ni^2+-affinity chromatography and cation-exchange (CM sepharose) chromatography, which may lead to protein of high purity and P450 content.

CYP2A6 [2] = biological target: T2, CYP2A6 (Homo sapiens, UniProt P11509); test: Time-dependent inhibition screen, recombinant CYP2A6 system, coumarin hydroxylase readout; settings: for time-dependent inhibition of CYP2A6, result in words: with NADPH, 7-hydroxycoumarin formation; for Fold difference (with respect to CA): kinact/kI relative to t-CA; for kinact / kinact/kI: Table 5
T2 sequence (P11509 1-494): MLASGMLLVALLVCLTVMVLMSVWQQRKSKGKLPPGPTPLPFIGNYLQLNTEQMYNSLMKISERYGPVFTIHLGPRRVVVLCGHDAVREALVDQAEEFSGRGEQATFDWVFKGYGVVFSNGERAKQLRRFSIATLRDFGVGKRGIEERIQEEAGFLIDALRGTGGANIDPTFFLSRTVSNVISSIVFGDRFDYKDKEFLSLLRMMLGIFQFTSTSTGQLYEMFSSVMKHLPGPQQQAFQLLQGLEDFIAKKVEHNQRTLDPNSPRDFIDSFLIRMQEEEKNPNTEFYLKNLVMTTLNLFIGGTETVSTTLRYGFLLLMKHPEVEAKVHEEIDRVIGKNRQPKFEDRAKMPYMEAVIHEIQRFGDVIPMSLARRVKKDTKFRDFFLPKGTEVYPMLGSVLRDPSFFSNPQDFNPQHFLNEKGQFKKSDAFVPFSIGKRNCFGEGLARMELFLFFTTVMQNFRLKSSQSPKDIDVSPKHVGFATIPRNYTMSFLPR
Source text: (§3) Since this type of inhibition also requires that the inhibitor is initially metabolized by the target enzyme, MBIs may be identified by evaluating the inhibition in the presence and absence of cofactors that are required for activity, such as NADPH for CYPs.

CYP2A6 [3] = biological target: T2, CYP2A6; test: in vitro
Source text: as §3

CYP2A6 [4] = biological target: T2, CYP2A6; test: biochemical
Source text: as §3

CYP2A6 [5] = biological target: T2, CYP2A6; test: IC50 for inhibition of CYP2A6, coumarin hydroxylase activity (7-hydroxycoumarin fluorescence); settings: Table 1B, structural analogs of CA
Source text: (§4) A 96-well plate assay and fluorescence spectroscopy may be used to quantify the product, 7-hydroxycoumarin.
Data was fit using GraphPad Prism.

CYP2A6 [6] = biological target: T2, CYP2A6; test: biochemical; remark: listed apart in the source
Source text: as §4
Data was fit using GraphPad Prism.

CYP2A6 [7] = biological target: T1, CYP2A6; test: biochemical
Description: as §1, §2

[8] = biological target: T3, CYP2A6-mediated nicotine metabolism (Homo sapiens, UniProt P11509); test: Model (Equation 2) predicting change in nicotine AUC from mechanism-based inhibition parameters; settings: Table 5, predicted nicotine AUC
T3 sequence (P11509 1-494): T2 sequence (P11509 1-494)

recombinant CYP2A13 = biological target: T4, recombinant CYP2A13 (Homo sapiens, UniProt Q16696); test: Time-dependent inhibition, recombinant CYP2A13 system, coumarin hydroxylase readout; assay type: biochemical
T4 sequence (Q16696 1-494): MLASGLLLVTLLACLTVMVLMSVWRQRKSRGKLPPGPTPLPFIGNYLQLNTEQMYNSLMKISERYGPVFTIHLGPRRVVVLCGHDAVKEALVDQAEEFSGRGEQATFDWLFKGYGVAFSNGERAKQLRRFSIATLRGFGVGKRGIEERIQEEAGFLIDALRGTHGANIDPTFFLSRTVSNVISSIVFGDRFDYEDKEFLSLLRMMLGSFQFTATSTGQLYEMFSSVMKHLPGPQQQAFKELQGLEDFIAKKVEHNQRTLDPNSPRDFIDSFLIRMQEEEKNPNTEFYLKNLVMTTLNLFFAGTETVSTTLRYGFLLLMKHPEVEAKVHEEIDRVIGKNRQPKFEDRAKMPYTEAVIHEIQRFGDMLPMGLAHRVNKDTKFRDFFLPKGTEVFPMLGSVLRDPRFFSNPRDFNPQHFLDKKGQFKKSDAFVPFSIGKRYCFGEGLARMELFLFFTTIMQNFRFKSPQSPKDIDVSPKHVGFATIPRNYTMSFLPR
Source text: The above-discussed approach regarding evaluation of selectivity, potency and inhibition parameters of human CYP2A6 by t-CA and structural analogs thereof may be similarly applied to evaluation of the same parameters with regard to CYP2A13.

[9] = obtained from PubChem and ChemSpider; cited from earlier work
[10] = recombinant CYP2A6, probe coumarin

Structure (SMILES): O=CC=Cc1ccccc1C(F)(F)F [o-trifluoromethyl-CA, 2-trifluoromethylcinnamaldehyde]
kinact (CYP2A6 [3]; [10]): 0.00237 s⁻¹
kinact/KI (CYP2A6 [3]; [10]): 45 M⁻¹ s⁻¹
Ki (CYP2A6 [4]): 52.6 µM
Fold difference (with respect to CA) (CYP2A6 [2]): 1.9
time-dependent inhibition of CYP2A6, result in words (CYP2A6 [2]): more potent inhibitors than t-CA

Structure (SMILES): O=C/C=C/c1ccc(F)cc1 [4-fluoro-CA]
IC50 (CYP2A6 [5]): 30.1 µM

Structure (SMILES): CCN(CC)c1ccc(/C=C/C=O)cc1 [4-diethylamino-CA]
IC50 (CYP2A6 [5]): 451 µM

Structure (SMILES): O=C/C=C/c1ccc(Cl)cc1 [4-chloro-CA]
Kd (CYP2A6 [1]): 48.9 µM
IC50 (CYP2A6 [5]): 30.1 µM

Structure (SMILES): CN(C)c1ccc(/C=C/C=O)cc1 [4-dimethylamino-CA]
IC50 (CYP2A6 [5]): 100 µM

Structure (SMILES): O=CC=C(c1ccccc1)c1ccccc1 [β-phenyl CA]
IC50 (CYP2A6 [5]): 148 µM

Structure (SMILES): COc1ccccc1C=CC=O [o-methoxycinnamaldehyde, 2-methoxycinnamaldehyde]
Kd (CYP2A6 [7]): 1.6 µM

Structure (SMILES): N#CC=Cc1ccccc1 [cinnamonitrile]
IC50 (CYP2A6 [6]): 8.8 µM

Structure (SMILES): CCCCCC/C(C=O)=C\c1ccccc1 [α-hexyl-CA]
time-dependent inhibition of CYP2A6, result in words (CYP2A6 [2]): not to be time-dependent inhibitors
IC50 (CYP2A6 [5]): 64.7 µM

Structure (SMILES): O=CC=Cc1cccc([N+](=O)[O-])c1 [3-nitro-CA, 3-nitrocinnamaldehyde]
kinact (CYP2A6 [3]; [10]): 0.00138 s⁻¹
kinact/KI (CYP2A6 [3]; [10]): 15.5 M⁻¹ s⁻¹
IC50 (CYP2A6 [6]): 410 µM
Ki (CYP2A6 [4]): 89.6 µM
Fold difference (with respect to CA) (CYP2A6 [2]): 0.65

Structure (SMILES): O=CC=Cc1ccccc1[N+](=O)[O-] [2-nitro-CA, 2-nitrocinnamaldehyde]
Ki (recombinant CYP2A13): 30.9 µM
kinact (recombinant CYP2A13): 0.00203 s⁻¹
kinact/KI (recombinant CYP2A13): 67.8 M⁻¹ s⁻¹
kinact (CYP2A6 [3]; [10]): 0.00372 s⁻¹
kinact/KI (CYP2A6 [3]; [10]): 267 M⁻¹ s⁻¹
IC50 (CYP2A6 [6]): 15.1 µM
Kd (CYP2A6 [7]): 47.5 µM
Ki (CYP2A6 [4]): 13.9 µM
Fold difference (with respect to CA) (CYP2A6 [2]): 11.2
time-dependent inhibition of CYP2A6, result in words (CYP2A6 [2]): more potent inhibitors than t-CA

Structure (SMILES): OC/C=C/c1ccccc1 [cinnamic alcohol, reference compound]
IC50 (CYP2A6 [6]): 354 ± 4.4 µM

Structure (SMILES): O=CCCc1ccccc1 [hydro-CA, hydrocinnamaldehyde]
AUC fold increase [8]: 1.71-2.67
kinact (CYP2A6 [3]; recombinant enzyme): 0.00193 s⁻¹
kinact/KI (CYP2A6 [3]; recombinant enzyme): 22.7 M⁻¹ s⁻¹
IC50 (CYP2A6 [6]): 48.3 µM
Kd (CYP2A6 [7]): 44.8 µM
Ki (CYP2A6 [4]): 85 µM
kinact (CYP2A6 [2]): .116 min⁻¹
kinact/kI (CYP2A6 [2]): 0.001365
Fold difference (with respect to CA) (CYP2A6 [2]): 0.96
time-dependent inhibition of CYP2A6, result in words (CYP2A6 [2]): not to be time-dependent inhibitors

Structure (SMILES): O=C/C=C/c1c(F)cccc1F [2,6-difluoro-CA, 2,6-difluorocinnamaldehyde]
Log P [9]: 2.3
kinact (CYP2A6 [3]; [10]): 0.00407 s⁻¹
kinact/KI (CYP2A6 [3]; [10]): 86.2 M⁻¹ s⁻¹
IC50 (CYP2A6 [6]): 3.9 µM
Kd (CYP2A6 [7]): 7.8 µM
Ki (CYP2A6 [4]): 47.2 µM
Fold difference (with respect to CA) (CYP2A6 [2]): 3.6
time-dependent inhibition of CYP2A6, result in words (CYP2A6 [2]): more potent inhibitors than t-CA

Structure (SMILES): CCCCC/C(C=O)=C/c1ccccc1 [α-amyl-CA]
time-dependent inhibition of CYP2A6, result in words (CYP2A6 [2]): not to be time-dependent inhibitors
IC50 (CYP2A6 [5]): 65 µM

Structure (SMILES): C/C(C=O)=C\c1ccc(C(C)(C)C)cc1 [4-t-butyl-α-methyl-CA]
IC50 (CYP2A6 [5]): 348 µM

Structure (SMILES): O=CC=Cc1ccc([N+](=O)[O-])cc1 [4-nitro-CA, 4-nitrocinnamaldehyde]
kinact (CYP2A6 [3]; [10]): 0.00065 s⁻¹
kinact/KI (CYP2A6 [3]; [10]): 7 M⁻¹ s⁻¹
IC50 (CYP2A6 [6]): 308 µM
Ki (CYP2A6 [4]): 92.1 µM
Fold difference (with respect to CA) (CYP2A6 [2]): 0.29

Structure (SMILES): O=C/C=C/c1ccc(Br)cc1 [4-bromo-CA]
IC50 (CYP2A6 [5]): 58.1 µM

Continued, in another order:

Kd (CYP2A6 [1]): 36.8 µM
time-dependent inhibition of CYP2A6, result in words (CYP2A6 [2]): not to be time-dependent inhibitors
Structure (SMILES): CCCCC(C=O)=Cc1ccccc1 [α-butyl-CA]

IC50 (CYP2A6 [6]): 5.3 µM
Kd (CYP2A6 [7]): 6.8 µM
time-dependent inhibition of CYP2A6, result in words (CYP2A6 [2]): not to be time-dependent inhibitors
Structure (SMILES): CC(C=O)=Cc1ccccc1 [α-methyl-CA, α-methyl-cinnamaldehyde]
time-dependent inhibition of CYP2A6, result in words (CYP2A6 [2]; listed as α-methyl-cinnamaldehyde): not be a time-dependent inhibitor of CYP2A6

AUC fold increase [8]: 2.44-4.22
kinact (CYP2A6 [3]; [10]): 0.0025 s⁻¹
kinact/KI (CYP2A6 [3]; [10]): 733 M⁻¹ s⁻¹
IC50 (CYP2A6 [6]): 3.3 µM
Kd (CYP2A6 [7]): 9.6 µM
Ki (CYP2A6 [4]): 3.4 µM
kinact (CYP2A6 [2]): .15 min⁻¹
kinact/kI (CYP2A6 [2]): 0.04399
Fold difference (with respect to CA) (CYP2A6 [2]): 30.7
Fold difference (with respect to CA) (CYP2A6 [2]; listed as α-chloro-cinnamaldehyde): over 30
Structure (SMILES): O=CC(Cl)=Cc1ccccc1 [α-chloro-CA, α-chlorocinnamaldehyde]
time-dependent inhibition of CYP2A6, result in words (CYP2A6 [2]): substantially more potent time-dependent inhibitor of CYP2A6 than t-CA; also recorded: more potent inhibitors than t-CA

Kd (CYP2A6 [1]): 3 µM
time-dependent inhibition of CYP2A6, result in words (CYP2A6 [2]): not to be time-dependent inhibitors
Structure (SMILES): CCC(C=O)=Cc1ccccc1 [α-ethyl-CA]

Kd (CYP2A6 [1]): 7.8 µM
time-dependent inhibition of CYP2A6, result in words (CYP2A6 [2]): not to be time-dependent inhibitors
Structure (SMILES): CCCC(C=O)=Cc1ccccc1 [α-propyl-CA]

IC50 (CYP2A6 [6]): 8 µM
Structure (SMILES): ON=CC=Cc1ccccc1 [Cinnamaldehyde oxime]

time-dependent inhibition of CYP2A6, result in words (CYP2A6 [2]): not to be time-dependent inhibitors
Structure (SMILES): O=C/C=C/c1ccccc1O [2-hydroxy-t-CA]

kinact (CYP2A6 [3]; [10]): 0.00405 s⁻¹
kinact/KI (CYP2A6 [3]; [10]): 207 M⁻¹ s⁻¹
Ki (CYP2A6 [4]): 19.6 µM
Fold difference (with respect to CA) (CYP2A6 [2]): 8.7
time-dependent inhibition of CYP2A6, result in words (CYP2A6 [2]): more potent inhibitors than t-CA
Structure (SMILES): CC(C=O)=Cc1ccccc1[N+](=O)[O-] [o-nitro-α-methyl-CA, 2-nitro-α-methylcinnamaldehyde]

Kd (CYP2A6 [1]): 3.2 µM
time-dependent inhibition of CYP2A6, result in words (CYP2A6 [2]): not to be time-dependent inhibitors
Structure (SMILES): CC(C)C(C=O)=Cc1ccccc1 [α-isopropyl-CA]

IC50 (CYP2A6 [6]): > 2500 µM
Structure (SMILES): O=C(O)/C=C/c1ccccc1 [cinnamic acid, reference compound]

time-dependent inhibition of CYP2A6, result in words (CYP2A6 [2]): not to be time-dependent inhibitors
Structure (SMILES): Cc1ccccc1C=CC=O [2-methyl-CA]

time-dependent inhibition of CYP2A6, result in words (CYP2A6 [2]): not to be time-dependent inhibitors
Structure (SMILES): O=CC(F)=Cc1ccccc1 [α-fluoro-CA]
